Experimental data: patent US20250011288A1 (BRISTOL-MYERS SQUIBB COMPANY, priority 2021, published 2025)

Biological target: T1, human RXFP1 (Homo sapiens, UniProt Q9HBX9)
T1 construct: expressed in transfected cells
T1 sequence (Q9HBX9 1-757): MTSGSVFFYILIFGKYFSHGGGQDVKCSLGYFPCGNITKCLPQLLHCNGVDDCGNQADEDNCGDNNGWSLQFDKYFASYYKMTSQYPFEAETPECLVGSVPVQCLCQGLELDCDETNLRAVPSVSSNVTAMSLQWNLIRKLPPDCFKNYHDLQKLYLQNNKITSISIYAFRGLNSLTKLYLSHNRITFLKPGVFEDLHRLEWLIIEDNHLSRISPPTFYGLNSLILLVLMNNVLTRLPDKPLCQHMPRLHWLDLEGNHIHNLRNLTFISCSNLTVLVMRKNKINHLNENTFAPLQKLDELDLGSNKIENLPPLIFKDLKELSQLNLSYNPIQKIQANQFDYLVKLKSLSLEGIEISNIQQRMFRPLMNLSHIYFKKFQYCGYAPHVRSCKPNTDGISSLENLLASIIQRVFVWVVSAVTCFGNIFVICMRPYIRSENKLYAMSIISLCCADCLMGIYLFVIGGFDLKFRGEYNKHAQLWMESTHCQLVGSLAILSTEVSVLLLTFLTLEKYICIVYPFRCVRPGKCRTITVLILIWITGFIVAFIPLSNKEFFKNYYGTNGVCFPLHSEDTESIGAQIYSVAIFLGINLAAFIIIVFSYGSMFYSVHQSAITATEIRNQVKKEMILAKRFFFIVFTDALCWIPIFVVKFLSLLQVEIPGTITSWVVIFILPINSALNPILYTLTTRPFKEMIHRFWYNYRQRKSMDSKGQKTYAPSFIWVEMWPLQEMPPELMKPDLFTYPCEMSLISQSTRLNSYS
Assay: human RXFP1 (hRXFP1) HEK293 cAMP assay (HTRF)
Format: cell-based
Details: HEK293 cells stably expressing human RXFP1, 30 min at room temperature
How it was run: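 Intracellular cAMP was quantified by HTRF after a 30 min room-temperature exposure of hRXFP1-HEK293 cells (1500/well) to compound at 0.010 nM–50 µM final, 2% DMSO. Buffer was HBSS with 20 mM HEPES, 0.05% BSA and 0.5 mM IBMX; values came from a 4-parameter logistic fit.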

| EC50 [nM] | Compound |
| --- | --- |
| 7.9 | COc1ncc(C2=NOC3CC(C(OC(=O)NC4CCC4)C(F)(F)F)CC23)cc1C(=O)N[C@@H]1C2CCC(/C2=C/C2CC2)[C@@H]1C(=O)Nc1ccc(F)c(C(F)(F)F)c1 (stereo partly drawn) [Example 171, 1-[3-(5-{[(2R,3S,7Z)-7-(cyclopropyl-methylidene)-3-{[4-fluoro-3-(trifluoromethyl)phenyl]carbamoyl}bicyclo[2.2.1]heptan-2-yl]carbamoyl}-6-methoxypyridin-3-yl)-3aH,4H,5H,6H, 6aH-cyclopenta[d][1,2]oxazol-5-yl]-2,2,2-trifluoroethyl N-cyclobutyl-carbamate] |
| 3.5 | COc1ncc(C(=O)NCC2(S(C)(=O)=O)CC2)cc1C(=O)N[C@H]1C(C(=O)Nc2ccc(F)c(C(F)(F)F)c2)[C@H]2CC[C@@H]1/C2=C\C1CC1 (stereo in doubt) [Example 74, N3-((1R,2R,3R,4R,Z)-7-(cyclopropylmethylene)-3-((4-fluoro-3-(trifluoromethyl)phenyl)carbamoyl)bicyclo[2.2.1]heptan-2-yl)-2-methoxy-N5-((1-(methylsulfonyl)cyclopropyl)methyl)pyridine-3,5-dicarboxamide] |
| 162 | COc1cnc(-c2cccc(C(=O)O)c2)cc1C(=O)N[C@@H]1C2CCC(/C2=C/C(F)(F)F)[C@@H]1C(=O)Nc1ccc(F)c(C(F)(F)F)c1 (stereo partly drawn) [Example 31, 3-(4-{[(2R,3S,7Z)-3-{[4-fluoro-3-(trifluoromethyl)phenyl]carbamoyl}-7-(2,2,2-trifluoroethylidene)bicyclo[2.2.1]heptan-2-yl]carbamoyl}-5-methoxypyridin-2-yl)benzoic acid] |
| 260 | COc1cn(CCCO)nc1C(=O)N[C@H]1[C@@H](C(=O)Nc2ccc(F)c(C(F)(F)F)c2)[C@H]2CC[C@@H]1/C2=C\C1CC1 [Example 80, N-[(1R,2R,3S, 4R,7Z)-7-(cyclopropyl-methylidene)-3-{[4-fluoro-3-(trifluoromethyl)phenyl]carbamoyl}bicyclo[2.2.1]heptan-2-yl]-1-(3-hydroxypropyl)-4-methoxy-1H-pyrazole-3-carboxamide] |
| 2.7 | COc1ncc(C2=NOC3CC(C(C)(C)O)CC23)cc1C(=O)N[C@H]1[C@@H](C(=O)Nc2ccc(F)c(C(F)(F)F)c2)[C@H]2CC[C@@H]1/C2=C\C1CC1 (stereo partly drawn) [Example 109, N-((1R,2R,3S,4R,Z)-7-(cyclopropylmethylene)-3-((4-fluoro-3-(trifluoromethyl)phenyl)carbamoyl)bicyclo[2.2.1]heptan-2-yl)-5-(5-(2-hydroxypropan-2-yl)-3a,5,6,6a-tetrahydro-4H-cyclopenta[d]isoxazol-3-yl)-2-methoxynicotinamide] |
| 109 | COc1cnc(-c2cc(C(=O)O)ccc2F)cc1C(=O)N[C@@H]1C2CCC(/C2=C/C(F)(F)F)[C@@H]1C(=O)Nc1ccc(F)c(C(F)(F)F)c1 (stereo partly drawn) [Example 30, 4-Fluoro-3-(4-{[(2R,3S,7Z)-3-{[4-fluoro-3-(trifluoromethyl)phenyl]carbamoyl}-7-(2,2,2-trifluorocthylidene)bicyclo[2. 2.1]heptan-2-yl]carbamoyl}-5-methoxypyridin-2-yl)benzoic acid] |
| 5.6 | COc1ncc(C2=NOC(C)(CO)C2)cc1C(=O)N[C@H]1[C@@H](C(=O)Nc2ccc(F)c(C(F)(F)F)c2)[C@H]2CC[C@@H]1/C2=C\C1CC1 (stereo partly drawn) [Example 157, N-[(1R,2R,3S,4R, 7Z)-7-(cyclopropyl-methylidene)-3-{[4-fluoro-3-(trifluoromethyl)phenyl]carbamoyl}bicyclo[2.2.1]heptan-2-yl]-5-[5-(hydroxymethyl)-5-methyl-4,5-dihydro-1,2-oxazol-3-yl]-2-methoxypyridine-3-carboxamide] |
| 3 | COc1ncc(C2=NOC3COCC23)cc1C(=O)N[C@H]1[C@@H](C(=O)N[C@H](C)C2(C)CC2)[C@H]2CC[C@@H]1/C2=C\C1CC1 (stereo partly drawn) [Example 137, N-((1R,2R,3S,4R,Z)-7-(cyclopropyl-methylene)-3-(((R)-1-(1-methylcyclopropyl)ethyl)carbamoyl)bicyclo[2.2.1]heptan-2-yl)-2-methoxy-5-(3a,4,6,6a-tetrahydrofuro[3,4-d]isoxazol-3-yl)nicotinamide] |
| 1.2 | COc1ncc(C2=NOC3CC(C(O)C(F)(F)F)CC23)cc1C(=O)N[C@H]1[C@@H](C(=O)Nc2ccc(F)c(C(F)(F)F)c2)[C@H]2CC[C@@H]1/C2=C\C1CC1 (stereo partly drawn) [Example 130, N-((1R,2R,3S,4R,Z)-7-(cyclopropylmethylene)-3-((4-fluoro-3-(trifluoromethyl)phenyl)carbamoyl)bicyclo[2.2.1]heptan-2-yl)-2-methoxy-5-(5-(2,2,2-trifluoro-1-hydroxyethyl)-3a,5,6,6a-tetrahydro-4H-cyclopenta[d]isoxazol-3-yl)nicotinamide] |
| 160 | COc1cnc(C2=NOC3COCC23)cc1C(=O)N[C@H]1[C@@H](C(=O)Nc2ccc(F)c(C(F)(F)F)c2)[C@H]2CC[C@@H]1/C2=C\C1CC1 (single isomer, unassigned) [Example 72] |
| 2400 | COc1ccc(-c2cc(C(=O)O)ccc2F)nc1C(=O)N[C@@H]1C2CCC(C2=C(C)C)[C@@H]1C(=O)Nc1ccc(F)c(C(F)(F)F)c1 (stereo partly drawn) [Example 23, 4-Fluoro-3-(6-{[(2R,3S)-3-{[4-fluoro-3-(trifluoromethyl)phenyl]carbamoyl}-7-(propan-2-ylidene)bicyclo [2.2.1]heptan-2-yl]carbamoyl}-5-methoxypyridin-2-yl)benzoic acid] |
| 4 | COc1ncc(C2=NOC3CC(C(O)C(F)(F)F)CC23)cc1C(=O)N[C@H]1[C@@H](C(=O)Nc2ccc(F)c(C(F)(F)F)c2)[C@H]2CC[C@@H]1/C2=C\C1CC1 (stereo partly drawn) [Example 135, N-((1R,2R,3S,4R,Z)-7-(cyclopropyl-methylene)-3-((4-fluoro-3-(trifluoromethyl)phenyl)carbamoyl)bicyclo[2.2.1]heptan-2-yl)-2-methoxy-5-(5-(2,2,2-trifluoro-1-hydroxyethyl)-3a,5,6,6a-tetrahydro-4H-cyclopenta[d]isoxazol-3-yl)nicotinamide] |
| 153 | COc1ncc(C#CCO)cc1C(=O)N[C@@H]1C2CCC(/C2=C/C(F)(F)F)[C@@H]1C(=O)Nc1ccc(F)c(C(F)(F)F)c1 (stereo partly drawn) [Example 49, N-[(2R,3S,7Z)-3-{[4-fluoro-3-(trifluoromethyl)phenyl]carbamoyl}-7-(2,2,2-trifluoroethylidene)bicyclo[2.2.1]heptan-2-yl]-5-(3-hydroxyprop-1-yn-1-yl)-2-methoxypyridine-3-carboxamide] |
| 4500 | O=C(N[C@@H]1C2CCC(/C2=C/C(F)(F)F)[C@@H]1C(=O)Nc1ccc(F)c(C(F)(F)F)c1)c1cnc2ccc(Cl)cc2c1 (stereo partly drawn) [Example 17, 6-chloro-N-[(2R,3S,7Z)-3-{[4-fluoro-3-(trifluoromethyl)phenyl]carbamoyl}-7-(2,2,2-trifluoroethylidene)bicyclo[2.2.1]heptan-2-yl]quinoline-3-carboxamide] |
| 3.3 | COc1ncc(C2=NOC3CC(C)(CO)CC23)cc1C(=O)N[C@H]1[C@@H](C(=O)N[C@H](C)C2(C)CC2)[C@H]2CC[C@@H]1/C2=C\C1CC1 (stereo partly drawn) [Example 177, N-[(1R,2R,3S,4R, 7Z)-7-(cyclopropyl-methylidene)-3-{[(1R)-1-(1-methylcyclo-propyl)ethyl]carbamoyl}bicyclo[2.2.1]heptan-2-yl]-5-[5-(hydroxymethyl)-5-methyl-3aH,4H,5H,6H, 6aH-cyclopenta[d][1,2]oxazol-3-yl]-2-methoxypyridine-3-carboxamide] |
| 5.3 | COc1ncc(-c2c(C)nn3c2COCC3)cc1C(=O)N[C@H]1[C@@H](C(=O)Nc2ccc(F)c(C(F)(F)F)c2)[C@H]2CC[C@@H]1/C2=C\C1CCCC1 [Example 150, N-[(1R,2R,3S,4R, 7Z)-7-(cyclopentyl-methylidene)-3-{[4-fluoro-3-(trifluoromethyl)phenyl]carbamoyl}bicyclo[2.2.1]heptan-2-yl]-2-methoxy-5-{2-methyl-4H,6H,7H-pyrazolo[3,2-c][1,4]oxazin-3-yl}pyridine-3-carboxamide] |
| 4.8 | COc1ncc(C2=NOC3CC(O)CC23)cc1C(=O)N[C@H]1[C@@H](C(=O)Nc2ccc(F)c(C(F)(F)F)c2)[C@H]2CC[C@@H]1/C2=C\C1CC1 (stereo partly drawn) [Example 138, N-((1R,2R,3S,4R,Z)-7-(cyclopropyl-methylene)-3-((4-fluoro-3-(trifluoromethyl)phenyl)carbamoyl)bicyclo[2.2.1]heptan-2-yl)-5-(5-hydroxy-3a,5,6,6a-tetrahydro-4H-cyclopenta[d]isoxazol-3-yl)-2-methoxynicotinamide] |
| 4000 | Cn1c(=O)c(C(=O)N[C@@H]2C3CCC(/C3=C/C3CC3)[C@@H]2C(=O)Nc2ccc(F)c(C(F)(F)F)c2)cc2ccccc21 (stereo partly drawn) [Example 19] |
